Experimental data taken from patent US10729130B2, “Nematicidal compositions and methods of using them” (Eden Research plc, priority 2004, dated 2020).

Columns and labels:
Format in all cases: physicochemical
[1] = Maximal citral and L-carvone loading in Baker's yeast particles (free terpene score); set-up: key to Free Terpene: +: “free terpene” refers to the visible presence of terpene in the centrifuged reaction mixture; −: The absence of free terpene indicates complete absorption of the terpene by the particles; settings: for terpene emulsion absorbed and encapsulated per 10 mg of YP: Baker's YP 20 mg/ml; for Free Terpene: 500 μl 20 mg/ml YP, overnight room temperature
Method: Samples were centrifuged at 14,000×g for 10 minutes and the appearance of free terpene floating on the aqueous layer was scored. The expression “free terpene” refers to the visible presence of terpene in the centrifuged reaction mixture. The absence of free terpene indicates complete absorption of the terpene by the particles. The highest volume of terpene absorbed by the particles, as evidenced by the absence of free terpene, was recorded as the maximal volume of absorbed terpene emulsion.

[2] = Maximal terpene loading at high Baker's yeast particle levels (free terpene score); set-up: key to Free Terpene: +: “free terpene” refers to the visible presence of terpene in the centrifuged reaction mixture; −: The absence of free terpene indicates complete absorption of the terpene by the particles; settings: for terpene emulsion absorbed and encapsulated per 125 mg of YP: Baker's YP 250 mg/ml; for Free Terpene: 500 μl 250 mg/ml YP
Method: Samples were centrifuged at 14,000×g for 10 minutes and the appearance of free terpene floating on the aqueous layer was scored. The expression “free terpene” refers to the visible presence of terpene in the centrifuged reaction mixture. The absence of free terpene indicates complete absorption of the terpene by the YP. The highest volume of terpene absorbed by the YP, as evidenced by the absence of free terpene, was recorded as the maximal volume of absorbed terpene emulsion.

[3] = Kinetics of terpene loading into various particles at room temperature or 37° C.; set-up: key: +: “free terpene” refers to the visible presence of terpene in the centrifuged reaction mixture; −: The absence of free terpene indicates complete absorption of the terpene by the particles
Method: 1% Tween-80 solution was prepared by sonicating 1 ml 10% Tween-80 in 10 ml water. • Baker's YP was prepared by mixing 5 g of bakers YP in 20 ml 1% Tween-80. • Nutrex™ YGP suspension was prepared by mixing 2 g Nutrex™ YGP in 20 ml 1% Tween-80. • SAF Mannan™ suspension was prepared by mixing 2 g SAF Mannan™ in 20 ml 1% Tween-80.
The reactions were incubated for 1, 3, 6, 9 and 24 hours at room temperature or 37° C. After incubation samples were centrifuged at 14,000×g for 10 minutes and the appearance of free terpene floating on the aqueous layer was scored. The highest volume of terpene absorbed by the particles as evidenced by the absence of free terpene was recorded as the volume of absorbed terpene emulsion. Colour of the encapsulated pellet was scored at 24 hours.

[4] = Baker's YP loading of different terpenes and terpene mixtures; set-up: key to Free Terpene: +: “free terpene” refers to the visible presence of terpene in the centrifuged reaction mixture; −: The absence of free terpene indicates complete absorption of the terpene by the particles; settings: for Free Terpene: Baker's YP 250 mg/ml 500 μl; for Vol. Loaded μl: approximate maximal terpene loading in Baker's YP
Method: Increasing volumes of terpene emulsion were mixed with 250 mg/ml Baker's YP or 250 mg/ml SAF Mannan™ overnight at room temperature as shown in Tables 27 and 28. Samples were centrifuged at 14,000×g for 10 minutes and the appearance of free terpene floating on the aqueous layer was scored. The highest volume of terpene emulsion absorbed by Baker's YP or SAF Mannan™ as evidenced by the absence of free terpene was recorded as the volume of absorbed terpene emulsion. Colour of encapsulated terpenes in the pellet was recorded.
Percentage loaded represents a ratio of the amount of terpene loaded to the amount of particle present (weight for weight).

[5] = emulsion 0.5 μl, 10% Tween-80 500 μl
[6] = emulsion 1.65 μl, 10% Tween-80 500 μl
[7] = emulsion 5 μl, 10% Tween-80 495 μl
[8] = emulsion 50 μl, 10% Tween-80 450 μl
[9] = emulsion 165 μl, 10% Tween-80 335 μl
[10] = emulsion 15 μl, 1% Tween-80 485 μl
[11] = emulsion 37.5 μl, 1% Tween-80 462.5 μl
[12] = emulsion 75 μl, 1% Tween-80 425 μl
[13] = emulsion 112.5 μl, 1% Tween-80 387.5 μl
[14] = emulsion 150 μl, 1% Tween-80 350 μl
[15] = emulsion 225 μl, 1% Tween-80 275 μl
[16] = emulsion 450 μl, 1% Tween-80 50 μl
[17] = 37 ° C., Bakers 250 mg/ml, emulsion 788 μl L-carvone or 525 μl Citral, 1 hr
[18] = 37 ° C., Bakers 250 mg/ml, emulsion 788 μl L-carvone or 525 μl Citral, 3 hr
[19] = 37 ° C., Bakers 250 mg/ml, emulsion 788 μl L-carvone or 525 μl Citral, 6 hr
[20] = 37 ° C., Bakers 250 mg/ml, emulsion 788 μl L-carvone or 525 μl Citral, 9 hr
[21] = 37 ° C., Bakers 250 mg/ml, emulsion 788 μl L-carvone or 525 μl Citral, 24 hr
[22] = 37 ° C., Nutrex 100 mg/ml, emulsion 1050 μl L-carvone or 788 μl Citral, 1 hr
[23] = 37 ° C., Nutrex 100 mg/ml, emulsion 1050 μl L-carvone or 788 μl Citral, 3 hr
[24] = 37 ° C., Nutrex 100 mg/ml, emulsion 1050 μl L-carvone or 788 μl Citral, 6 hr
[25] = 37 ° C., Nutrex 100 mg/ml, emulsion 1050 μl L-carvone or 788 μl Citral, 9 hr
[26] = 37 ° C., Nutrex 100 mg/ml, emulsion 1050 μl L-carvone or 788 μl Citral, 24 hr
[27] = 37 ° C., SAF 100 mg/ml, emulsion 1050 μl L-carvone or 788 μl Citral, 1 hr
[28] = 37 ° C., SAF 100 mg/ml, emulsion 1050 μl L-carvone or 788 μl Citral, 3 hr
[29] = 37 ° C., SAF 100 mg/ml, emulsion 1050 μl L-carvone or 788 μl Citral, 6 hr
[30] = 37 ° C., SAF 100 mg/ml, emulsion 1050 μl L-carvone or 788 μl Citral, 9 hr
[31] = 37 ° C., SAF 100 mg/ml, emulsion 1050 μl L-carvone or 788 μl Citral, 24 hr
[32] = Rt, Bakers 250 mg/ml, emulsion 788 μl L-carvone or 525 μl Citral, 1 hr
[33] = Rt, Bakers 250 mg/ml, emulsion 788 μl L-carvone or 525 μl Citral, 3 hr
[34] = Rt, Bakers 250 mg/ml, emulsion 788 μl L-carvone or 525 μl Citral, 6 hr
[35] = Rt, Bakers 250 mg/ml, emulsion 788 μl L-carvone or 525 μl Citral, 9 hr
[36] = Rt, Bakers 250 mg/ml, emulsion 788 μl L-carvone or 525 μl Citral, 24 hr
[37] = Rt, Nutrex 100 mg/ml, emulsion 1050 μl L-carvone or 788 μl Citral, 1 hr
[38] = Rt, Nutrex 100 mg/ml, emulsion 1050 μl L-carvone or 788 μl Citral, 3 hr
[39] = Rt, Nutrex 100 mg/ml, emulsion 1050 μl L-carvone or 788 μl Citral, 6 hr
[40] = Rt, Nutrex 100 mg/ml, emulsion 1050 μl L-carvone or 788 μl Citral, 9 hr
[41] = Rt, Nutrex 100 mg/ml, emulsion 1050 μl L-carvone or 788 μl Citral, 24 hr
[42] = Rt, SAF 100 mg/ml, emulsion 1050 μl L-carvone or 788 μl Citral, 1 hr
[43] = Rt, SAF 100 mg/ml, emulsion 1050 μl L-carvone or 788 μl Citral, 3 hr
[44] = Rt, SAF 100 mg/ml, emulsion 1050 μl L-carvone or 788 μl Citral, 6 hr
[45] = Rt, SAF 100 mg/ml, emulsion 1050 μl L-carvone or 788 μl Citral, 9 hr
[46] = Rt, SAF 100 mg/ml, emulsion 1050 μl L-carvone or 788 μl Citral, 24 hr

CC(C)=CCCC(C)=CC=O [Citral, citral]
terpene emulsion absorbed and encapsulated per 10 mg of YP [1]: at least 5 μl
Free Terpene [1, 5]: −
Free Terpene [1, 6]: −
Free Terpene [1, 7]: −
Free Terpene [1, 8]: +
Free Terpene [1, 9]: +
Free Terpene ([1]; emulsion 500 μl, no Tween-80): +
terpene emulsion absorbed and encapsulated per 125 mg of YP [2]: at least 75 μl
Free Terpene [2, 10]: −
Free Terpene [2, 11]: −
Free Terpene [2, 12]: −
Free Terpene [2, 13]: Sl+
Free Terpene [2, 14]: +
Free Terpene [2, 15]: +
Free Terpene [2, 16]: +
Free Terpene (hr) [3, 17]: +
Free Terpene (hr) [3, 18]: −
Free Terpene (hr) [3, 19]: −
Free Terpene (hr) [3, 20]: −
Free Terpene (hr) [3, 21]: −
Free Terpene (hr) [3, 22]: +
Free Terpene (hr) [3, 23]: −
Free Terpene (hr) [3, 24]: −
Free Terpene (hr) [3, 25]: −
Free Terpene (hr) [3, 26]: −
Free Terpene (hr) [3, 27]: +
Free Terpene (hr) [3, 28]: −
Free Terpene (hr) [3, 29]: −
Free Terpene (hr) [3, 30]: −
Free Terpene (hr) [3, 31]: −
Free Terpene (hr) [3, 32]: +
Free Terpene (hr) [3, 33]: −
Free Terpene (hr) [3, 34]: −
Free Terpene (hr) [3, 35]: −
Free Terpene (hr) [3, 36]: −
Free Terpene (hr) [3, 37]: +
Free Terpene (hr) [3, 38]: −
Free Terpene (hr) [3, 39]: −
Free Terpene (hr) [3, 40]: −
Free Terpene (hr) [3, 41]: −
Free Terpene (hr) [3, 42]: +
Free Terpene (hr) [3, 43]: −
Free Terpene (hr) [3, 44]: −
Free Terpene (hr) [3, 45]: −
Free Terpene (hr) [3, 46]: −
Free Terpene [4, 10]: −
Free Terpene [4, 11]: −
Free Terpene [4, 12]: −
Free Terpene [4, 14]: +
Free Terpene [4, 15]: +
Free Terpene [4, 16]: +
Vol. Loaded μl [4]: 75 µL

L-carvone
terpene emulsion absorbed and encapsulated per 10 mg of YP [1]: at least 16.5 μl
Free Terpene [1, 5]: −
Free Terpene [1, 6]: −
Free Terpene [1, 7]: −
Free Terpene ([1]; emulsion 16.5 μl, 10% Tween-80 483.5 μl): −
Free Terpene [1, 8]: +
Free Terpene [1, 9]: +
Free Terpene ([1]; emulsion 500 μl, no Tween-80): +
terpene emulsion absorbed and encapsulated per 125 mg of YP [2]: at least 112.5 μl
Free Terpene [2, 10]: −
Free Terpene [2, 11]: −
Free Terpene [2, 12]: −
Free Terpene [2, 13]: −
Free Terpene [2, 14]: Sl+
Free Terpene [2, 15]: +
Free Terpene [2, 16]: +
Free Terpene (hr) [3, 17]: +
Free Terpene (hr) [3, 18]: −
Free Terpene (hr) [3, 19]: −
Free Terpene (hr) [3, 20]: −
Free Terpene (hr) [3, 21]: −
Free Terpene (hr) [3, 22]: +
Free Terpene (hr) [3, 23]: −
Free Terpene (hr) [3, 24]: −
Free Terpene (hr) [3, 25]: −
Free Terpene (hr) [3, 26]: −
Free Terpene (hr) [3, 27]: <+
Free Terpene (hr) [3, 28]: −
Free Terpene (hr) [3, 29]: −
Free Terpene (hr) [3, 30]: −
Free Terpene (hr) [3, 31]: −
Free Terpene (hr) [3, 32]: +
Free Terpene (hr) [3, 33]: −
Free Terpene (hr) [3, 34]: −
Free Terpene (hr) [3, 35]: −
Free Terpene (hr) [3, 36]: −
Free Terpene (hr) [3, 37]: +
Free Terpene (hr) [3, 38]: −
Free Terpene (hr) [3, 39]: −
Free Terpene (hr) [3, 40]: −
Free Terpene (hr) [3, 41]: −
Free Terpene (hr) [3, 42]: <+
Free Terpene (hr) [3, 43]: −
Free Terpene (hr) [3, 44]: −
Free Terpene (hr) [3, 45]: −
Free Terpene (hr) [3, 46]: −
Free Terpene [4, 10]: −
Free Terpene [4, 11]: −
Free Terpene [4, 14]: +
Free Terpene [4, 15]: +
Vol. Loaded μl [4]: 37.5 µL
% Loaded w/w ([4]; maximal loading in Baker's YP, ratio of terpene loaded to particle present, weight for weight): 33.3 % w/w
